Source: ChEMBL document CHEMBL2331210, “New 2-benzylsulfanyl-nicotinic acid based 1,3,4-oxadiazoles: their synthesis and biological evaluation” (2013)
Converted amounts (≈) assume the structure as drawn.

Key:
TK-10 = assay: Antitumor activity against human TK10 cells assessed as cell growth at 0.1 uM; assay type: functional; conditions: read-out: Activity
NCI-H460 = assay: Antitumor activity against human NCI-H460 cells assessed as cell growth at 0.1 uM; assay type: functional; conditions: read-out: Activity
MDA-MB-231 = assay: Antitumor activity against human MDA-MB-231/ATCC cells assessed as cell growth at 0.1 uM; assay type: functional; conditions: read-out: Activity
SR = assay: Antitumor activity against human SR cells assessed as cell growth at 0.1 uM; assay type: functional; conditions: read-out: Activity
UACC-257 = assay: Antitumor activity against human UACC257 cells assessed as cell growth at 0.1 uM; assay type: functional; conditions: read-out: Activity
UO-31 = assay: Antitumor activity against human UO31 cells assessed as cell growth at 0.1 uM; assay type: functional; conditions: read-out: Activity
NCI-H23 = assay: Antitumor activity against human NCI-H23 cells assessed as cell growth at 0.1 uM; assay type: functional; conditions: read-out: Activity
K562 = assay: Antitumor activity against human K562 cells assessed as cell growth at 0.1 uM; assay type: functional; conditions: read-out: Activity
Staphylococcus aureus = assay: Antimicrobial activity against Staphylococcus aureus MTCC 96 assessed as growth inhibition measured after overnight incubation by broth dilution method; assay type: functional
RPMI-8226 = assay: Antitumor activity against human RPMI8226 cells assessed as cell growth at 0.1 uM; assay type: functional; conditions: read-out: Activity
HL-60 = assay: Antitumor activity against human HL60(TB) cells assessed as cell growth at 0.1 uM; assay type: functional; conditions: read-out: Activity
NCI-H226 = assay: Antitumor activity against human NCI-H226 cells assessed as cell growth at 0.1 uM; assay type: functional; conditions: read-out: Activity
CCRF-CEM = assay: Antitumor activity against human CCRF-CEM cells assessed as cell growth at 0.1 uM; assay type: functional; conditions: read-out: Activity
MDA-MB-468 = assay: Antitumor activity against human MDA-MB-468 cells assessed as cell growth at 0.1 uM; assay type: functional; conditions: read-out: Activity
Candida albicans = assay: Antimicrobial activity against Candida albicans MTCC 227 assessed as growth inhibition measured after overnight incubation by broth dilution method; assay type: functional
HOP-62 = assay: Antitumor activity against human HOP62 cells assessed as cell growth at 0.1 uM; assay type: functional; conditions: read-out: Activity
[1] = Antitumor activity against human Hs 578T cells assessed as cell growth at 0.1 uM; assay type: functional; conditions: read-out: Activity
MCF7 = assay: Antitumor activity against human MCF7 cells assessed as cell growth at 0.1 uM; assay type: functional; conditions: read-out: Activity
[2] = Antitumor activity against human EKVX cells assessed as cell growth at 0.1 uM; assay type: functional; conditions: read-out: Activity
Malme-3M = assay: Antitumor activity against human MALME-3M cells assessed as cell growth at 0.1 uM; assay type: functional; conditions: read-out: Activity
A549 = assay: Antitumor activity against human A549/ATCC cells assessed as cell growth at 0.1 uM; assay type: functional; conditions: read-out: Activity
OVCAR-3 = assay: Antitumor activity against human OVCAR3 cells assessed as cell growth at 0.1 uM; assay type: functional; conditions: read-out: Activity
MOLT-4 = assay: Antitumor activity against human MOLT4 cells assessed as cell growth at 0.1 uM; assay type: functional; conditions: read-out: Activity
SNB-75 = assay: Antitumor activity against human SNB75 cells assessed as cell growth at 0.1 uM; assay type: functional; conditions: read-out: Activity
SF-295 = assay: Antitumor activity against human SF295 cells assessed as cell growth at 0.1 uM; assay type: functional; conditions: read-out: Activity
MDA-MB-435 = assay: Antitumor activity against human MDA-MB-435 cells assessed as cell growth at 0.1 uM; assay type: functional; conditions: read-out: Activity
Escherichia coli = assay: Antimicrobial activity against Escherichia coli MTCC 443 assessed as growth inhibition measured after overnight incubation by broth dilution method; assay type: functional
ACHN = assay: Antitumor activity against human ACHN cells assessed as cell growth at 0.1 uM; assay type: functional; conditions: read-out: Activity
SK-MEL-5 = assay: Antitumor activity against human SK-MEL-5 cells assessed as cell growth at 0.1 uM; assay type: functional; conditions: read-out: Activity
OVCAR-4 = assay: Antitumor activity against human OVCAR4 cells assessed as cell growth at 0.1 uM; assay type: functional; conditions: read-out: Activity
U-251 = assay: Antitumor activity against human U251 cells assessed as cell growth at 0.1 uM; assay type: functional; conditions: read-out: Activity
SK-OV-3 = assay: Antitumor activity against human SKOV3 cells assessed as cell growth at 0.1 uM; assay type: functional; conditions: read-out: Activity
[3] = tested on: Mycobacterium tuberculosis; assay: Antitubercular activity against Mycobacterium tuberculosis H37Rv assessed as growth inhibition after 12 to 28 days by L.J. agar MIC method; assay type: functional
Aspergillus niger = assay: Antimicrobial activity against Aspergillus niger MTCC 282 assessed as growth inhibition measured after overnight incubation by broth dilution method; assay type: functional
SF-268 = assay: Antitumor activity against human SF268 cells assessed as cell growth at 0.1 uM; assay type: functional; conditions: read-out: Activity
Streptococcus pyogenes = assay: Antimicrobial activity against Streptococcus pyogenes MTCC 442 assessed as growth inhibition measured after overnight incubation by broth dilution method; assay type: functional
[4] = Antitumor activity against human HCC2998 cells assessed as cell growth at 0.1 uM; assay type: functional; conditions: HCC 2998, read-out: Activity
SF-539 = assay: Antitumor activity against human SF539 cells assessed as cell growth at 0.1 uM; assay type: functional; conditions: read-out: Activity
SW-620 = assay: Antitumor activity against human SW620 cells assessed as cell growth at 0.1 uM; assay type: functional; conditions: read-out: Activity
NCI/ADR-RES = assay: Antitumor activity against human NCI/ADR-RES cells assessed as cell growth at 0.1 uM; assay type: functional; conditions: read-out: Activity
HT-29 = assay: Antitumor activity against human HT-29 cells assessed as cell growth at 0.1 uM; assay type: functional; conditions: read-out: Activity
CAKI-1 = assay: Antitumor activity against human CAKI-1 cells assessed as cell growth at 0.1 uM; assay type: functional; conditions: read-out: Activity
A498 = assay: Antitumor activity against human A498 cells assessed as cell growth at 0.1 uM; assay type: functional; conditions: read-out: Activity
IGROV-1 = assay: Antitumor activity against human IGROV1 cells assessed as cell growth at 0.1 uM; assay type: functional; conditions: read-out: Activity
UACC-62 = assay: Antitumor activity against human UACC62 cells assessed as cell growth at 0.1 uM; assay type: functional; conditions: read-out: Activity
SK-MEL-28 = assay: Antitumor activity against human SK-MEL-28 cells assessed as cell growth at 0.1 uM; assay type: functional; conditions: read-out: Activity
HCT-116 = assay: Antitumor activity against human HCT116 cells assessed as cell growth at 0.1 uM; assay type: functional; conditions: read-out: Activity
SN12C = assay: Antitumor activity against human SN12C cells assessed as cell growth at 0.1 uM; assay type: functional; conditions: read-out: Activity
Pseudomonas aeruginosa = assay: Antimicrobial activity against Pseudomonas aeruginosa MTCC 2488 assessed as growth inhibition measured after overnight incubation by broth dilution method; assay type: functional
SK-MEL-2 = assay: cells; conditions: Homo sapiens, SK-MEL-2, read-out: Activity
Description: Antitumor activity against human SK-MEL-2 cells assessed as cell growth at 0.1 uM

M14 = assay: Antitumor activity against human M14 cells assessed as cell growth at 0.1 uM; assay type: functional; conditions: read-out: Activity
OVCAR-8 = assay: Antitumor activity against human OVCAR8 cells assessed as cell growth at 0.1 uM; assay type: functional; conditions: read-out: Activity
Aspergillus clavatus = assay: Antimicrobial activity against Aspergillus clavatus MTCC 1323 assessed as growth inhibition measured after overnight incubation by broth dilution method; assay type: functional
RXF 393 = assay: Antitumor activity against human RXF393 cells assessed as cell growth at 0.1 uM; assay type: functional; conditions: read-out: Activity
SNB-19 = assay: Antitumor activity against human SNB19 cells assessed as cell growth at 0.1 uM; assay type: functional; conditions: read-out: Activity
NCI-H522 = assay: Antitumor activity against human NCI-H522 cells assessed as cell growth at 0.1 uM; assay type: functional; conditions: read-out: Activity
DU-145 = assay: Antitumor activity against human DU145 cells assessed as cell growth at 0.1 uM; assay type: functional; conditions: read-out: Activity
T47D = assay: Antitumor activity against human T47D cells assessed as cell growth at 0.1 uM; assay type: functional; conditions: read-out: Activity
BT-549 = assay: Antitumor activity against human BT549 cells assessed as cell growth at 0.1 uM; assay type: functional; conditions: read-out: Activity
PC-3 = assay: Antitumor activity against human PC3 cells assessed as cell growth at 0.1 uM; assay type: functional; conditions: read-out: Activity
OVCAR-5 = assay: Antitumor activity against human OVCAR5 cells assessed as cell growth at 0.1 uM; assay type: functional; conditions: read-out: Activity
HCT-15 = assay: Antitumor activity against human HCT15 cells assessed as cell growth at 0.1 uM; assay type: functional; conditions: read-out: Activity
LOX IMVI = assay: Antitumor activity against human LOXIMVI cells assessed as cell growth at 0.1 uM; assay type: functional; conditions: read-out: Activity

For `COc1cc(OC)nc(NC(=O)CSc2nnc(-c3cccnc3SCc3ccccc3)o2)n1`, the growth at 0.1 µM (TK-10) was 98.6%, the growth at 0.1 µM (NCI-H460) was 112% and the growth at 0.1 µM (MDA-MB-231) was 108%. For the same molecule, the growth at 0.1 µM (SR) was 96.2%, the growth at 0.1 µM (UACC-257) was 105% and the growth at 0.1 µM (UO-31) was 80.6%. For the same molecule, the growth at 0.1 µM (NCI-H23) was 103%, the growth at 0.1 µM (K562) was 98.2% and the MIC (Staphylococcus aureus) was 250 mg/L (≈ 503 µM). For the same molecule, the growth at 0.1 µM (RPMI-8226) was 101%, the growth at 0.1 µM (HL-60) was 97.3% and the growth at 0.1 µM (NCI-H226) was 101%. The growth at 0.1 µM (CCRF-CEM) was 108%, the growth at 0.1 µM (MDA-MB-468) was 98.2% and the MIC (Candida albicans) was 500 mg/L (≈ 1010 µM). The growth at 0.1 µM (HOP-62) was 99.7%, the growth at 0.1 µM [1] was 107% and the growth at 0.1 µM (MCF7) was 95.5%. It also gave a growth at 0.1 µM [2] of 105%, a growth at 0.1 µM (Malme-3M) of 98.2% and a growth at 0.1 µM (A549) of 96.5%. The growth at 0.1 µM (OVCAR-3) was 102%, the growth at 0.1 µM (MOLT-4) was 93.2% and the growth at 0.1 µM (SNB-75) was 92.5%. It also gave a growth at 0.1 µM (SF-295) of 97.1%, a growth at 0.1 µM (MDA-MB-435) of 105% and an MIC (Escherichia coli) of 100 mg/L (≈ 201 µM). The growth at 0.1 µM (ACHN) was 107%, the growth at 0.1 µM (SK-MEL-5) was 105% and the growth at 0.1 µM (OVCAR-4) was 100%. The growth at 0.1 µM (U-251) was 106%, the growth at 0.1 µM (SK-OV-3) was 103% and the “growth inhibition (GI)” value [3] was 99%. It also gave an MIC ([3]; Mycobacterium tuberculosis, H37Rv) of 250 mg/L (≈ 503 µM), an MIC (Aspergillus niger) of 500 mg/L (≈ 1010 µM) and a growth at 0.1 µM (SF-268) of 104%. It also gave an MIC (Streptococcus pyogenes) of 125 mg/L (≈ 252 µM), a growth at 0.1 µM [4] of 109% and a growth at 0.1 µM (SF-539) of 94.5%. It also gave a growth at 0.1 µM (SW-620) of 107%, a growth at 0.1 µM (NCI/ADR-RES) of 102% and a growth at 0.1 µM (HT-29) of 100%. The growth at 0.1 µM (CAKI-1) was 99.5%, the growth at 0.1 µM (A498) was 125% and the growth at 0.1 µM (IGROV-1) was 114%. For the same molecule, the growth at 0.1 µM (UACC-62) was 107%, the growth at 0.1 µM (SK-MEL-28) was 114% and the growth at 0.1 µM (HCT-116) was 101%. It also gave a growth at 0.1 µM (SN12C) of 106%, an MIC (Pseudomonas aeruginosa) of 250 mg/L (≈ 503 µM) and a growth at 0.1 µM (SK-MEL-2) of 102%. For the same molecule, the growth at 0.1 µM (M14) was 96.7%, the growth at 0.1 µM (OVCAR-8) was 105% and the MIC (Aspergillus clavatus) was 500 mg/L (≈ 1010 µM). It also gave a growth at 0.1 µM (RXF 393) of 107%, a growth at 0.1 µM (SNB-19) of 107% and a growth at 0.1 µM (NCI-H522) of 88.2%. For the same molecule, the growth at 0.1 µM (DU-145) was 108%, the growth at 0.1 µM (T47D) was 89.9% and the growth at 0.1 µM (BT-549) was 99.6%. It also gave a growth at 0.1 µM (PC-3) of 104%, a growth at 0.1 µM (OVCAR-5) of 101% and a growth at 0.1 µM (HCT-15) of 105%. The growth at 0.1 µM (LOX IMVI) was 97.6%.
